Assay results from ChEMBL document CHEMBL3885881, “DrugMatrix”.

Species on record: Rattus norvegicus
Assay: DrugMatrix - Regimen: Daily Repeat
Assay type: toxicity, organism-based, Sprague-Dawley
Parameters: regimen Daily Repeat, gender Male, age 6-8 weeks
Conditions: in vivo, po, 30 mg/kg, route oral GAVAGE, dose level Low, vehicle .5 % CMC; for BASOPHIL / EOSINOPHIL / ERYTHROCYTE COUNT / HEMATOCRIT / HEMOGLOBIN / LEUKOCYTE COUNT / LYMPHOCYTE / MEAN CORPUSCULAR HEMOGLOBIN / MEAN CORPUSCULAR HEMOGLOBIN CONCENTRATION / MEAN CORPUSCULAR VOLUME / MONOCYTE / NEUTROPHIL / PLATELET COUNT: tissue Blood; for ALANINE AMINOTRANSFERASE / ALBUMIN / ALKALINE PHOSPHATASE / ASPARTATE AMINOTRANSFERASE / BLOOD UREA NITROGEN / CHLORIDE / CHOLESTEROL / CREATINE PHOSPHOKINASE / CREATININE / GLUCOSE / PHOSPHORUS / POTASSIUM / SODIUM / TOTAL BILIRUBIN / TOTAL PROTEIN: tissue Plasma

`CCCc1cc(=O)[nH]c(=S)[nH]1` [PROPYLTHIOURACIL] was tested, and the BASOPHIL (72 h, time 3 day) was 0%, the EOSINOPHIL (72 h, time 3 day) was 0.67% and the “ERYTHROCYTE COUNT” value (72 h, time 3 day) was 5.84 x10E6/uL. For the same molecule, the HEMATOCRIT (72 h, time 3 day) was 36.23%, the HEMOGLOBIN (72 h, time 3 day) was 14.13 G/DL and the “LEUKOCYTE COUNT” value (72 h, time 3 day) was 20.27 x10E3/uL. For the same molecule, the LYMPHOCYTE (72 h, time 3 day) was 89.33%, the “MEAN CORPUSCULAR HEMOGLOBIN” value (72 h, time 3 day) was 24.23 pg and the “MEAN CORPUSCULAR HEMOGLOBIN CONCENTRATION” value (72 h, time 3 day) was 39 G/DL. The “MEAN CORPUSCULAR VOLUME” value (72 h, time 3 day) was 62.03 fL, the MONOCYTE (72 h, time 3 day) was 2% and the NEUTROPHIL (72 h, time 3 day) was 8%. The “PLATELET COUNT” value (72 h, time 3 day) was 1163.33 x10E3/uL, the “ALANINE AMINOTRANSFERASE” value (72 h, time 3 day) was 44 u/L and the ALBUMIN (72 h, time 3 day) was 3.73 G/DL. For the same molecule, the “ALKALINE PHOSPHATASE” value (72 h, time 3 day) was 305.67 u/L, the “ASPARTATE AMINOTRANSFERASE” value (72 h, time 3 day) was 56 u/L and the “BLOOD UREA NITROGEN” value (72 h, time 3 day) was 11 mg/dL. For the same molecule, the CHLORIDE (72 h, time 3 day) was 106.33 MEQ/L, the CHOLESTEROL (72 h, time 3 day) was 78 mg/dL and the “CREATINE PHOSPHOKINASE” value (72 h, time 3 day) was 125.67 u/L. The CREATININE (72 h, time 3 day) was 0.47 mg/dL, the GLUCOSE (72 h, time 3 day) was 167.33 mg/dL and the PHOSPHORUS (72 h, time 3 day) was 11 mg/dL. For the same molecule, the POTASSIUM (72 h, time 3 day) was 6.5 MEQ/L, the SODIUM (72 h, time 3 day) was 152 MEQ/L and the “TOTAL BILIRUBIN” value (72 h, time 3 day) was 0.3 mg/dL. For the same molecule, the “TOTAL PROTEIN” value (72 h, time 3 day) was 5.9 G/DL, the BASOPHIL (120 h, time 5 day) was 0% and the EOSINOPHIL (120 h, time 5 day) was 0%. The “ERYTHROCYTE COUNT” value (120 h, time 5 day) was 6.26 x10E6/uL, the HEMATOCRIT (120 h, time 5 day) was 37.07% and the HEMOGLOBIN (120 h, time 5 day) was 14.77 G/DL. For the same molecule, the “LEUKOCYTE COUNT” value (120 h, time 5 day) was 11.7 x10E3/uL, the LYMPHOCYTE (120 h, time 5 day) was 87% and the “MEAN CORPUSCULAR HEMOGLOBIN” value (120 h, time 5 day) was 23.6 pg. For the same molecule, the “MEAN CORPUSCULAR HEMOGLOBIN CONCENTRATION” value (120 h, time 5 day) was 39.83 G/DL, the “MEAN CORPUSCULAR VOLUME” value (120 h, time 5 day) was 59.2 fL and the MONOCYTE (120 h, time 5 day) was 1.67%. The NEUTROPHIL (120 h, time 5 day) was 11.33%, the “PLATELET COUNT” value (120 h, time 5 day) was 1185.67 x10E3/uL and the “ALANINE AMINOTRANSFERASE” value (120 h, time 5 day) was 32.67 u/L. For the same molecule, the ALBUMIN (120 h, time 5 day) was 3.53 G/DL, the “ALKALINE PHOSPHATASE” value (120 h, time 5 day) was 297.33 u/L and the “ASPARTATE AMINOTRANSFERASE” value (120 h, time 5 day) was 51.67 u/L. The “BLOOD UREA NITROGEN” value (120 h, time 5 day) was 13.33 mg/dL, the CHLORIDE (120 h, time 5 day) was 108.33 MEQ/L and the CHOLESTEROL (120 h, time 5 day) was 68 mg/dL. The “CREATINE PHOSPHOKINASE” value (120 h, time 5 day) was 112 u/L, the CREATININE (120 h, time 5 day) was 0.53 mg/dL and the GLUCOSE (120 h, time 5 day) was 180.33 mg/dL. The PHOSPHORUS (120 h, time 5 day) was 10.03 mg/dL, the POTASSIUM (120 h, time 5 day) was 6.8 MEQ/L and the SODIUM (120 h, time 5 day) was 149 MEQ/L. The “TOTAL BILIRUBIN” value (120 h, time 5 day) was 0.23 mg/dL and the “TOTAL PROTEIN” value (120 h, time 5 day) was 5.7 G/DL.
